In ChEMBL document CHEMBL1201862, “PubChem BioAssay data set” (2004):
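Test compounds were applied to cells in 96-well plates for 48 hours at 5 doses. The concentration for 50% growth inhibition is given as GI50.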 The source made the active and inactive calls. Rule as the data show it: active = GI50 up to about 1.1 µM and inactive = higher.

Legend:
Assay in all cases: NCI anticancer screen, dose series, 48 h
MCF7 = test system: MCF7
SNB-75 = test system: SNB-75
HL-60 = test system: HL-60
U-251 = test system: U-251
CCRF-CEM = test system: CCRF-CEM
CAKI-1 = test system: CAKI-1
PC-3 = test system: PC-3
TK-10 = test system: TK-10
OVCAR-4 = test system: OVCAR-4
HT-29 = test system: HT-29
DU-145 = test system: DU-145
SK-MEL-2 = test system: SK-MEL-2
MDA-MB-435 = test system: MDA-MB-435
SF-295 = test system: SF-295
OVCAR-3 = test system: OVCAR-3
A549 = test system: A549
A498 = test system: A498
Malme-3M = test system: Malme-3M
SW-620 = test system: SW-620
RXF 393 = test system: RXF 393

Row | SMILES | GI50 (MCF7) | GI50 (SNB-75) | GI50 (HL-60) | GI50 (U-251) | GI50 (CCRF-CEM) | GI50 (CAKI-1) | GI50 (PC-3) | GI50 (TK-10) | GI50 (OVCAR-4) | GI50 (HT-29) | GI50 (DU-145) | GI50 (SK-MEL-2) | GI50 (MDA-MB-435) | GI50 (SF-295) | GI50 (OVCAR-3) | GI50 (A549) | GI50 (A498) | GI50 (Malme-3M) | GI50 (SW-620) | GI50 (RXF 393)
1 | Cc1cc(NS(=O)(=O)c2ccc(Nc3c4ccccc4nc4c(C(=O)NCCO)cccc34)cc2)no1 | 14.9 µM (inactive) | 7.19 µM (inactive) | 37.9 µM (inactive) | 27.7 µM (inactive) | 15.2 µM (inactive) | 26.1 µM (inactive) | 39.2 µM (inactive) | 35.6 µM (inactive) | 29 µM (inactive) | 29 µM (inactive) | 34.7 µM (inactive) | 22.2 µM (inactive) | 24.7 µM (inactive) | 38.7 µM (inactive) | 21.9 µM (inactive) | 37.3 µM (inactive) | 30.1 µM (inactive) | 28.1 µM (inactive) | 22.6 µM (inactive) | –
2 | O=C1/C(=N/N=C(c2ccccc2)c2ccccc2)c2ccccc2-c2ccccc21 | > 100 µM (inactive) | > 100 µM (inactive) | > 100 µM (inactive) | 85.7 µM (inactive) | – | 37.6 µM (inactive) | 64 µM (inactive) | 75.5 µM (inactive) | 77.3 µM (inactive) | > 100 µM (inactive) | > 100 µM (inactive) | > 100 µM (inactive) | > 100 µM (inactive) | 64 µM (inactive) | 40.8 µM (inactive) | > 100 µM (inactive) | – | 78.5 µM (inactive) | > 100 µM (inactive) | > 100 µM (inactive)
3 | CC(=O)OC1COC(n2c(N)c(C#N)c(C)c(C#N)c2=S)C(OC(C)=O)C1OC(C)=O (stereo unspecified) | 88.1 µM (inactive) | > 100 µM (inactive) | – | – | – | > 100 µM (inactive) | 76.7 µM (inactive) | > 100 µM (inactive) | – | > 100 µM (inactive) | – | – | > 100 µM (inactive) | > 100 µM (inactive) | > 100 µM (inactive) | > 100 µM (inactive) | > 100 µM (inactive) | > 100 µM (inactive) | > 100 µM (inactive) | –
4 | CN(NC(=O)/C(=C\c1ccco1)NC(=O)c1ccccc1)c1cn[nH]c(=O)c1Cl | > 100 µM (inactive) | 23.4 µM (inactive) | – | 79.4 µM (inactive) | 24.6 µM (inactive) | > 100 µM (inactive) | > 100 µM (inactive) | > 100 µM (inactive) | > 100 µM (inactive) | 58.6 µM (inactive) | > 100 µM (inactive) | 80.5 µM (inactive) | > 100 µM (inactive) | 64.4 µM (inactive) | 27.9 µM (inactive) | > 100 µM (inactive) | – | 39.3 µM (inactive) | 45.9 µM (inactive) | > 100 µM (inactive)
5 | Clc1ccc(C2=CCN3CC=C(c4ccc(Cl)cc4)C23)cc1 | 13.9 µM (inactive) | – | 4.78 µM (inactive) | 11 µM (inactive) | 12.8 µM (inactive) | 14.3 µM (inactive) | – | 14 µM (inactive) | 8.26 µM (inactive) | 5.21 µM (inactive) | 14.7 µM (inactive) | 15.5 µM (inactive) | 10.7 µM (inactive) | 14.6 µM (inactive) | 12.6 µM (inactive) | 14.2 µM (inactive) | – | 13.6 µM (inactive) | 13.3 µM (inactive) | –
6 | NC1CC(=O)c2cscc21 (stereo unspecified) | – | > 100 µM (inactive) | 13.6 µM (inactive) | > 100 µM (inactive) | 16.3 µM (inactive) | 15.9 µM (inactive) | 52.7 µM (inactive) | 19.1 µM (inactive) | > 100 µM (inactive) | > 100 µM (inactive) | 91.4 µM (inactive) | > 100 µM (inactive) | 24.1 µM (inactive) | > 100 µM (inactive) | 17.5 µM (inactive) | 14.1 µM (inactive) | – | – | 17.6 µM (inactive) | > 100 µM (inactive)
7 | Nc1ccc(S(=O)(=O)Nc2nc3ccccc3nc2Nc2ccc(S(N)(=O)=O)cc2)cc1 | 57.8 µM (inactive) | 13.6 µM (inactive) | 25.1 µM (inactive) | 27.7 µM (inactive) | 48.8 µM (inactive) | 68.7 µM (inactive) | 34.9 µM (inactive) | 44.6 µM (inactive) | 2.45 µM (inactive) | 57.8 µM (inactive) | 44.9 µM (inactive) | 19.1 µM (inactive) | 49.3 µM (inactive) | 26.9 µM (inactive) | 32.4 µM (inactive) | 47.1 µM (inactive) | – | 22.8 µM (inactive) | 36.9 µM (inactive) | 20.8 µM (inactive)
8 | CCOc1ccc(NC(=O)C(=O)C2C(=O)Nc3ccccc3[S+]2[O-])cc1 (stereo unspecified) | > 100 µM (inactive) | 95.1 µM (inactive) | > 100 µM (inactive) | > 100 µM (inactive) | > 100 µM (inactive) | > 100 µM (inactive) | > 100 µM (inactive) | > 100 µM (inactive) | 89.7 µM (inactive) | > 100 µM (inactive) | – | > 100 µM (inactive) | > 100 µM (inactive) | > 100 µM (inactive) | > 100 µM (inactive) | > 100 µM (inactive) | > 100 µM (inactive) | > 100 µM (inactive) | > 100 µM (inactive) | > 100 µM (inactive)
9 | Cc1cccc(N/C(Sc2ccccc2)=C(/C(Cl)=C(Cl)Cl)[N+](=O)[O-])c1 | 29.3 µM (inactive) | 26.1 µM (inactive) | – | 15.4 µM (inactive) | 27 µM (inactive) | 19.9 µM (inactive) | 27 µM (inactive) | – | 17.5 µM (inactive) | 17.6 µM (inactive) | 20.5 µM (inactive) | 28.1 µM (inactive) | 17.7 µM (inactive) | 17.1 µM (inactive) | 10 µM (inactive) | 20 µM (inactive) | 16.8 µM (inactive) | 16.5 µM (inactive) | 17.4 µM (inactive) | –
10 | C/N=C(\Nc1cccc(C(F)(F)F)c1)SCc1ccc(N=C=S)cc1 | – | 14.2 µM (inactive) | 40.6 µM (inactive) | 15.8 µM (inactive) | 23.4 µM (inactive) | 16.5 µM (inactive) | 15.9 µM (inactive) | 11.4 µM (inactive) | 13.3 µM (inactive) | 15.6 µM (inactive) | 17.4 µM (inactive) | 12.3 µM (inactive) | 13.8 µM (inactive) | 16 µM (inactive) | – | 18.1 µM (inactive) | 19.9 µM (inactive) | 14.7 µM (inactive) | 20.2 µM (inactive) | 13.4 µM (inactive)
11 | CCc1nnc(CC)n1NCCCC(=O)O | > 100 µM (inactive) | > 100 µM (inactive) | – | > 100 µM (inactive) | > 100 µM (inactive) | – | > 100 µM (inactive) | > 100 µM (inactive) | > 100 µM (inactive) | > 100 µM (inactive) | > 100 µM (inactive) | > 100 µM (inactive) | > 100 µM (inactive) | > 100 µM (inactive) | > 100 µM (inactive) | > 100 µM (inactive) | – | – | > 100 µM (inactive) | > 100 µM (inactive)
12 | O=c1c2ccccc2[nH]c(=S)n1-c1ccc(/N=N/c2cccc3cc(O)ccc23)cc1 | 27 µM (inactive) | > 100 µM (inactive) | 22.3 µM (inactive) | 54.6 µM (inactive) | > 100 µM (inactive) | > 100 µM (inactive) | 35.1 µM (inactive) | > 100 µM (inactive) | > 100 µM (inactive) | > 100 µM (inactive) | > 100 µM (inactive) | > 100 µM (inactive) | > 100 µM (inactive) | > 100 µM (inactive) | > 100 µM (inactive) | > 100 µM (inactive) | – | > 100 µM (inactive) | > 100 µM (inactive) | > 100 µM (inactive)
13 | O=c1cc(-c2ccccc2)[nH]c2cccc(S)c12 | 0.465 µM (active) | – | 0.201 µM (active) | 0.182 µM (active) | 0.177 µM (active) | – | 0.123 µM (active) | – | 4.8 µM (inactive) | 0.202 µM (active) | 0.393 µM (active) | – | 0.0299 µM (active) | 0.115 µM (active) | 3.14 µM (inactive) | 0.44 µM (active) | – | 0.153 µM (active) | 0.0566 µM (active) | 0.164 µM (active)
14 | COc1c(-c2nc3ccc(N4CCN(C)CC4)nc3[nH]2)cc(OC)c2c1nc(CCl)n2C | – | 12.6 µM (inactive) | 26.5 µM (inactive) | 12.2 µM (inactive) | 25.2 µM (inactive) | 16.6 µM (inactive) | 11.2 µM (inactive) | – | 18.3 µM (inactive) | 16.3 µM (inactive) | 25.4 µM (inactive) | 11.6 µM (inactive) | 16.1 µM (inactive) | 31.8 µM (inactive) | 28.1 µM (inactive) | 27.8 µM (inactive) | – | 17.5 µM (inactive) | 20.9 µM (inactive) | 16 µM (inactive)
15 | O=C(CSCC(=O)N/N=C/c1ccccc1)N/N=C\c1ccccc1 | > 100 µM (inactive) | > 100 µM (inactive) | – | > 100 µM (inactive) | > 100 µM (inactive) | > 100 µM (inactive) | > 100 µM (inactive) | > 100 µM (inactive) | > 100 µM (inactive) | > 100 µM (inactive) | > 100 µM (inactive) | > 100 µM (inactive) | > 100 µM (inactive) | > 100 µM (inactive) | > 100 µM (inactive) | > 100 µM (inactive) | – | > 100 µM (inactive) | > 100 µM (inactive) | 65.8 µM (inactive)
16 | CCCC(=O)Oc1ccc2c(C)cc(=O)oc2c1OC(=O)CCC | 55.5 µM (inactive) | 40.6 µM (inactive) | – | 57.3 µM (inactive) | 13.9 µM (inactive) | – | 59.3 µM (inactive) | 50.4 µM (inactive) | > 100 µM (inactive) | 35.5 µM (inactive) | 50.4 µM (inactive) | > 100 µM (inactive) | 59.6 µM (inactive) | 82.6 µM (inactive) | 32.4 µM (inactive) | 31.6 µM (inactive) | 30.7 µM (inactive) | 24.3 µM (inactive) | 40.1 µM (inactive) | –
